Measurements from US6465395B2, “Substituted methylene pyrazolinones and the herbicidal use thereof” (BASF Aktiengesellschaft, priority 2000, dated 2002).

How the values were obtained:
Format in all cases: in vivo
Design in all cases: scale not given here
[1] = test system: SETVI, Foxtail, Green, Setaria viridis, (L.) Beau; experiment: Postemergence herbicidal evaluation
Method: (§1) The postemergence herbicidal activity of the compounds of the present invention is evaluated by the following tests. Seedling plants are grown in jiffy flats for about two weeks. The test compounds are dispersed in 80/20 (v/v) acetone/water mixtures containing 1.0% SUN-IT®II, a methylated seed oil, in sufficient quantities to provide the equivalent of about 0.006 kg/ha to 0.800 kg/ha of active compound when applied to the plants through a spray nozzle operating at 40 psi for a predetermined time. After spraying, the plants are placed on greenhouse benches and are cared for in accordance with conventional greenhouse procedures. Approximately two to three weeks after treatment, the seedling plants are examined and rated according to the rating system set forth below. Where more than one test is involved for a given compound, the data are averaged.

[2] = test system: AMBEL, Ragweed, Ambrosia artemisifolia, L.; experiment: Postemergence herbicidal evaluation
Method: as §1

[3] = test system: ABUTH, Velvetleaf, Abutilon theophrasti, Medic.; experiment: Postemergence herbicidal evaluation
Method: as §1

[4] = test system: ZEAMX, Corn, Field, Zea mays, L.; experiment: Postemergence herbicidal evaluation; settings: crop (corn)
Method: as §1

[5] = test system: IPOSS, Morningglory spp., Ipomoea spp.; experiment: Postemergence herbicidal evaluation
Method: as §1

[6] = test system: ECHCG, Barnyardgrass, Echinochloa crus-galli, (L.) Beau; experiment: Postemergence herbicidal evaluation
Method: as §1

[7] = test system: PANDI, Panicum, Fall, Panicum dichotomiflorum, Michx; experiment: Postemergence herbicidal evaluation
Method: as §1

[8] = test system: ORYSAT, Rice, Tebonnet, Oryza sativa, (L.) Tebonnet; experiment: Postemergence herbicidal evaluation; settings: crop (rice)
Method: as §1

[9] = test system: SETVI, Foxtail, Green, Setaria viridis, (L.) Beau; experiment: Preemergence herbicidal evaluation
Text: (§2) The preemergence herbicidal activity of the test compounds of the present invention is exemplified by the following tests in which the seeds of a variety of monocotyledonous and dicotyledonous plants are separately mixed with potting soil and planted on top of approximately one inch of soil in separate pint cups. After planting, the cups are sprayed with the selected aqueous acetone solution containing test compound in sufficient quantity to provide the equivalent of about 0.0125 kg/ha to 0.800 kg/ha of test compound per cup. The treated cups are then placed on greenhouse benches, watered and cared for in accordance with conventional greenhouse procedures. Approximately two to four weeks after treatment, the tests are terminated and each cup is examined and rated according to the rating system provided in Example 12. When more than one test is performed for a given compound, the data are averaged.

[10] = test system: GOSHI, Cotton, Gossypium hirsutum, L.; experiment: Preemergence herbicidal evaluation; settings: crop (cotton)
Text: as §2

[11] = test system: AMBEL, Ragweed, Ambrosia artemisifolia, L.; experiment: Preemergence herbicidal evaluation
Text: as §2

[12] = test system: ABUTH, Velvetleaf, Abutilon theophrasti, Medic.; experiment: Preemergence herbicidal evaluation
Text: as §2

[13] = test system: CHEAL, Lambsquarters, Chenopodium album, L.; experiment: Preemergence herbicidal evaluation
Text: as §2

[14] = test system: ZEAMX, Corn, Field, Zea mays, L.; experiment: Preemergence herbicidal evaluation; settings: crop (corn)
Text: as §2

[15] = test system: IPOSS, Morningglory spp., Ipomoea spp.; experiment: Preemergence herbicidal evaluation
Text: as §2

[16] = test system: ECHCG, Barnyardgrass, Echinochloa crus-galli, (L.) Beau; experiment: Preemergence herbicidal evaluation
Text: as §2

[17] = test system: PANDI, Panicum, Fall, Panicum dichotomiflorum, Michx; experiment: Preemergence herbicidal evaluation
Text: as §2

[18] = test system: ORYSAT, Rice, Tebonnet, Oryza sativa, (L.) Tebonnet; experiment: Preemergence herbicidal evaluation; settings: crop (rice)
Text: as §2

[19] = test system: CHEAL, Lambsquarters, Chenopodium album, L.; experiment: Postemergence herbicidal evaluation
Method: as §1

## 4,4′-[(Z,Z)-Dithiobis[(2,3-dihydro-3,3,4-trimethylbenzo[b]thien-5-yl)methylidyne]]bis[1-methyl-2-pyrazolin-5-one] S,S,S′,S′,-tetraoxide, 80:20 mixture with 4,4′-[(E,Z)-dithiobis[(2,3-dihydro-3,3,4-trimethyl-benzo[b]thien-5-yl)methylidyne]]bis[1-methyl-2-pyrazolin-5-one] S,S,S′,S′-tetraoxide [Example 7]
[1]; 0.0125 kg/ha
  Herbicide rating SETVI: 7.0
[1]; 0.0250 kg/ha
  Herbicide rating SETVI: 7.0
[1]; 0.0500 kg/ha
  Herbicide rating SETVI: 9.0
[1]; 0.1000 kg/ha
  Herbicide rating SETVI: 9.0
[2]; 0.0125 kg/ha
  Herbicide rating AMBEL: 4.0
[2]; 0.0250 kg/ha
  Herbicide rating AMBEL: 7.0
[2]; 0.0500 kg/ha
  Herbicide rating AMBEL: 9.0
[2]; 0.1000 kg/ha
  Herbicide rating AMBEL: 9.0
[3]; 0.0125 kg/ha
  Herbicide rating ABUTH: 3.0
[3]; 0.0250 kg/ha
  Herbicide rating ABUTH: 4.0
[3]; 0.0500 kg/ha
  Herbicide rating ABUTH: 5.0
[3]; 0.1000 kg/ha
  Herbicide rating ABUTH: 7.0
[4]; 0.0125 kg/ha
  Herbicide rating ZEAMX: 0.0
[4]; 0.0250 kg/ha
  Herbicide rating ZEAMX: 0.0
[4]; 0.0500 kg/ha
  Herbicide rating ZEAMX: 0.0
[4]; 0.1000 kg/ha
  Herbicide rating ZEAMX: 2.0
[5]; 0.0125 kg/ha
  Herbicide rating IPOSS: 1.0
[5]; 0.0250 kg/ha
  Herbicide rating IPOSS: 1.0
[5]; 0.0500 kg/ha
  Herbicide rating IPOSS: 2.0
[5]; 0.1000 kg/ha
  Herbicide rating IPOSS: 2.0
[6]; 0.0125 kg/ha
  Herbicide rating ECHCG: 7.0
[6]; 0.0250 kg/ha
  Herbicide rating ECHCG: 7.0
[6]; 0.0500 kg/ha
  Herbicide rating ECHCG: 8.0
[6]; 0.1000 kg/ha
  Herbicide rating ECHCG: 9.0
[7]; 0.0125 kg/ha
  Herbicide rating PANDI: 5.0
[7]; 0.0250 kg/ha
  Herbicide rating PANDI: 3.0
[7]; 0.0500 kg/ha
  Herbicide rating PANDI: 7.0
[7]; 0.1000 kg/ha
  Herbicide rating PANDI: 9.0
[8]; 0.0125 kg/ha
  Herbicide rating ORYSAT: 3.5
[8]; 0.0250 kg/ha
  Herbicide rating ORYSAT: 6.0
[8]; 0.0500 kg/ha
  Herbicide rating ORYSAT: 7.0
[8]; 0.1000 kg/ha
  Herbicide rating ORYSAT: 7.0

## 4-Methoximino-5-methyl-6-(1-ethyl-5-hydroxypyrazol-4-yl)thiocarbonylthiochroman-1,1-dioxide, zinc (+2) chelate [Example 6]
[9]; 0.0500 kg/ha
  Herbicide rating SETVI: 4.0
[9]; 0.1000 kg/ha
  Herbicide rating SETVI: 7.0
[9]; 0.2000 kg/ha
  Herbicide rating SETVI: 9.0
[9]; 0.4000 kg/ha
  Herbicide rating SETVI: 9.0
[9]; 0.8000 kg/ha
  Herbicide rating SETVI: 9.0
[10]; 0.0500 kg/ha
  Herbicide rating GOSHI: 0.0
[10]; 0.1000 kg/ha
  Herbicide rating GOSHI: 1.0
[10]; 0.2000 kg/ha
  Herbicide rating GOSHI: 6.0
[10]; 0.4000 kg/ha
  Herbicide rating GOSHI: 8.0
[10]; 0.8000 kg/ha
  Herbicide rating GOSHI: 7.0
[11]; 0.0500 kg/ha
  Herbicide rating AMBEL: 7.0
[11]; 0.1000 kg/ha
  Herbicide rating AMBEL: 8.0
[11]; 0.2000 kg/ha
  Herbicide rating AMBEL: 9.0
[11]; 0.4000 kg/ha
  Herbicide rating AMBEL: 9.0
[11]; 0.8000 kg/ha
  Herbicide rating AMBEL: 9.0
[12]; 0.0500 kg/ha
  Herbicide rating ABUTH: 9.0
[12]; 0.1000 kg/ha
  Herbicide rating ABUTH: 9.0
[12]; 0.2000 kg/ha
  Herbicide rating ABUTH: 9.0
[12]; 0.4000 kg/ha
  Herbicide rating ABUTH: 9.0
[12]; 0.8000 kg/ha
  Herbicide rating ABUTH: 9.0
[13]; 0.0500 kg/ha
  Herbicide rating CHEAL: 9.0
[13]; 0.1000 kg/ha
  Herbicide rating CHEAL: 9.0
[13]; 0.2000 kg/ha
  Herbicide rating CHEAL: 9.0
[13]; 0.4000 kg/ha
  Herbicide rating CHEAL: 9.0
[13]; 0.8000 kg/ha
  Herbicide rating CHEAL: 9.0
[14]; 0.0500 kg/ha
  Herbicide rating ZEAMX: 0.0
[14]; 0.1000 kg/ha
  Herbicide rating ZEAMX: 0.0
[14]; 0.2000 kg/ha
  Herbicide rating ZEAMX: 0.0
[14]; 0.4000 kg/ha
  Herbicide rating ZEAMX: 1.0
[14]; 0.8000 kg/ha
  Herbicide rating ZEAMX: 0.0
[15]; 0.0500 kg/ha
  Herbicide rating IPOSS: 1.0
[15]; 0.1000 kg/ha
  Herbicide rating IPOSS: 3.0
[15]; 0.2000 kg/ha
  Herbicide rating IPOSS: 6.0
[15]; 0.4000 kg/ha
  Herbicide rating IPOSS: 5.0
[15]; 0.8000 kg/ha
  Herbicide rating IPOSS: 5.0
[16]; 0.0500 kg/ha
  Herbicide rating ECHCG: 3.0
[16]; 0.1000 kg/ha
  Herbicide rating ECHCG: 9.0
[16]; 0.2000 kg/ha
  Herbicide rating ECHCG: 9.0
[16]; 0.4000 kg/ha
  Herbicide rating ECHCG: 9.0
[16]; 0.8000 kg/ha
  Herbicide rating ECHCG: 8.0
[17]; 0.0500 kg/ha
  Herbicide rating PANDI: 6.0
[17]; 0.1000 kg/ha
  Herbicide rating PANDI: 9.0
[17]; 0.2000 kg/ha
  Herbicide rating PANDI: 9.0
[17]; 0.4000 kg/ha
  Herbicide rating PANDI: 8.0
[17]; 0.8000 kg/ha
  Herbicide rating PANDI: 8.0
[18]; 0.0500 kg/ha
  Herbicide rating ORYSAT: 4.0
[18]; 0.1000 kg/ha
  Herbicide rating ORYSAT: 7.0
[18]; 0.2000 kg/ha
  Herbicide rating ORYSAT: 9.0
[18]; 0.4000 kg/ha
  Herbicide rating ORYSAT: 9.0
[18]; 0.8000 kg/ha
  Herbicide rating ORYSAT: 9.0

## Cc1c(C(=C2C=NN(C)C2=O)N(C)C)ccc2c1C(C)(C)CS2(=O)=O [Example 2, 4-[(Z)-(2,3-Dihydro-3,3,4-trimethylbenzo[b]thien-5-yl)(dimethylamino)methylene]-1-methyl-2-pyrazolin-5-one S,S-dioxide]
[1]; 0.0125 kg/ha
  Herbicide rating SETVI: 0.0
[1]; 0.0250 kg/ha
  Herbicide rating SETVI: 0.0
[1]; 0.0500 kg/ha
  Herbicide rating SETVI: 0.0
[1]; 0.1000 kg/ha
  Herbicide rating SETVI: 0.0
[2]; 0.0125 kg/ha
  Herbicide rating AMBEL: 0.0
[2]; 0.0250 kg/ha
  Herbicide rating AMBEL: 0.0
[2]; 0.0500 kg/ha
  Herbicide rating AMBEL: 0.0
[2]; 0.1000 kg/ha
  Herbicide rating AMBEL: 0.0
[3]; 0.0125 kg/ha
  Herbicide rating ABUTH: 0.0
[3]; 0.0250 kg/ha
  Herbicide rating ABUTH: 0.0
[3]; 0.0500 kg/ha
  Herbicide rating ABUTH: 0.0
[3]; 0.1000 kg/ha
  Herbicide rating ABUTH: 0.0
[19]; 0.0125 kg/ha
  Herbicide rating CHEAL: 0.0
[19]; 0.0250 kg/ha
  Herbicide rating CHEAL: 0.0
[19]; 0.0500 kg/ha
  Herbicide rating CHEAL: 0.0
[19]; 0.1000 kg/ha
  Herbicide rating CHEAL: 0.0
[4]; 0.0125 kg/ha
  Herbicide rating ZEAMX: 0.0
[4]; 0.0250 kg/ha
  Herbicide rating ZEAMX: 0.0
[4]; 0.0500 kg/ha
  Herbicide rating ZEAMX: 0.0
[4]; 0.1000 kg/ha
  Herbicide rating ZEAMX: 0.0
[6]; 0.0125 kg/ha
  Herbicide rating ECHCG: 0.0
[6]; 0.0250 kg/ha
  Herbicide rating ECHCG: 0.0
[6]; 0.0500 kg/ha
  Herbicide rating ECHCG: 0.0
[6]; 0.1000 kg/ha
  Herbicide rating ECHCG: 0.0

## COc1ccc(OC(=C2C=NN(C)C2=O)c2ccc3c(c2C)C(C)(C)CS3(=O)=O)cc1 [Example 3, 4-[(Z)-(2,3-Dihydro-3,3,4-trimethylbenzo-[b]thien-5-yl)(p-methoxyphenoxy)methylene]-1-methyl-2-pyrazolin-5-one, S,S-dioxide]
[1]; 0.0125 kg/ha
  Herbicide rating SETVI: 1.0
[1]; 0.0250 kg/ha
  Herbicide rating SETVI: 3.0
[1]; 0.0500 kg/ha
  Herbicide rating SETVI: 5.0
[1]; 0.1000 kg/ha
  Herbicide rating SETVI: 7.0
[2]; 0.0125 kg/ha
  Herbicide rating AMBEL: 2.0
[2]; 0.0250 kg/ha
  Herbicide rating AMBEL: 4.0
[2]; 0.0500 kg/ha
  Herbicide rating AMBEL: 7.0
[2]; 0.1000 kg/ha
  Herbicide rating AMBEL: 7.0
[3]; 0.0125 kg/ha
  Herbicide rating ABUTH: 2.0
[3]; 0.0250 kg/ha
  Herbicide rating ABUTH: 4.0
[3]; 0.0500 kg/ha
  Herbicide rating ABUTH: 7.0
[3]; 0.1000 kg/ha
  Herbicide rating ABUTH: 7.0
[19]; 0.0125 kg/ha
  Herbicide rating CHEAL: 6.0
[19]; 0.0250 kg/ha
  Herbicide rating CHEAL: 6.0
[19]; 0.0500 kg/ha
  Herbicide rating CHEAL: 8.0
[19]; 0.1000 kg/ha
  Herbicide rating CHEAL: 9.0
[4]; 0.0125 kg/ha
  Herbicide rating ZEAMX: 0.0
[4]; 0.0250 kg/ha
  Herbicide rating ZEAMX: 0.0
[4]; 0.0500 kg/ha
  Herbicide rating ZEAMX: 0.0
[4]; 0.1000 kg/ha
  Herbicide rating ZEAMX: 2.0
[6]; 0.0125 kg/ha
  Herbicide rating ECHCG: 2.0
[6]; 0.0250 kg/ha
  Herbicide rating ECHCG: 3.0
[6]; 0.0500 kg/ha
  Herbicide rating ECHCG: 4.0
[6]; 0.1000 kg/ha
  Herbicide rating ECHCG: 6.0
